From publication PMC10819071, “SG-ATT: A Sequence Graph Cross-Attention Representation Architecture for Molecular Property Prediction” (Molecules, 2024)

Tested on: not listed separately
Assay: in vitro validation of HepG2 hepatocytotoxicity (CC50)
Assay type: cell-based
Details: human, HepG2 cells, top 10 compounds ranked by SG-ATT prediction, classification threshold 100 μM
Description: (§1) Chronic hepatitis B caused by hepatitis B virus (HBV) is a kind of serious disease. HBV inhibitory drugs are developed from a variety of compounds, and to further explore whether anti-HBV compounds are potentially promising for research, it is necessary to validate their anti-HBV capacity (IC50) and HepG2 hepatocytotoxicity (CC50). We used compounds screened with the fields of target name and target tissue from the CHEMBL database as training data and set the HBV (IC50) concentration and hepatotoxicity concentration (CC50) thresholds at 20 μM (the smaller the IC50 value; the more […]) and 100 μM (higher CC50 concentration indicates lower toxicity), respectively, to convert the compound activity data against the target into binary data for prediction. To validate the reliability of the SG-ATT model, we also used in vitro validation to test the model on IC50 and CC50 to predict the properties of the compounds. Throughout the in vitro validation, we tested the activity data of 100 compounds for IC50 and CC50.
(§2) We counted the model prediction results and listed the top 10 compounds ranked using μM prediction size. The first represents the largest μM, and the 10th represents the smallest μM.

Compound	CC50
O=C(N/C(C(=O)N1CCCCC1)=C(\Br)c1nccs1)c1ccc(F)cc1 [O=C(N/C(C(N1CCCCC1)=O)=C(Br)/C2=NC=CS2) C(C=C3)=CC=C3F]	> 100 µM
CC(C)C(CO)NC(=O)[C@H](Cc1ccc(OCCN(C)C)cc1)NC(=O)c1ccccc1 (some centres unmarked) [O=C(NC(CO)C(C)C)[C@@H](NC(C1=CC=CC=C1)=O)CC2=CC=C(OCCN(C)C)C=C2]	89.1 µM

Same assay, conditions: human, top 10 compounds ranked by SG-ATT prediction, classification threshold 100 μM

Compound	CC50
N#Cc1ccc(/C(Br)=C(/NC(=O)c2ccccc2)C(=O)N[C@H](CO)Cc2ccccc2)cc1 [Br/C(C1=CC=C(C#N)C=C1)=C(NC(C2=CC=CC=C2)=O)/ C(N[C@@H](CC3=CC=CC=C3)CO)=O]	> 100 µM
O=C(N[C@H](CO)Cc1ccccc1)/C(NC(=O)c1ccccc1)=C(/Br)c1ccc(O)cc1 [Br/C(C1=CC=C(O)C=C1)=C(NC(C2=CC=CC=C2)=O)/ C(N[C@H](CO)CC3=CC=CC=C3)=O]	> 100 µM
O=C(N[C@H](CO)Cc1ccccc1)/C(NC(=O)c1ccccc1)=C(/Br)c1ccccc1Br [Br/C(C1=CC=CC=C1Br)=C(NC(C2=CC=CC=C2)=O)/ C(N[C@@H](CC3=CC=CC=C3)CO)=O]	> 100 µM
COc1ccccc1/C(Br)=C(/NC(=O)c1ccc([N+](=O)[O-])cc1)C(=O)N[C@@H](CO)CC(C)C [O=C(N[C@H](CC(C)C)CO)/C(NC(C1=CC=C([N+]([O-])=O) C=C1)=O)=C(Br)\C2=CC=CC=C2OC]	86.6 µM
O=C(N[C@H](CO)Cc1ccccc1)/C(=C\c1ccc(Br)cc1)NC(=O)c1ccccc1 [O=C(N[C@H](CO)CC1=CC=CC=C1)/C (NC(C2=CC=CC=C2)=O)=C\C3=CC=C(Br)C=C3]	72.7 µM
O=C(N[C@H](CO)Cc1ccccc1)/C(=C\c1ccccc1)NC(=O)c1ccccc1F [O=C(N[C@H](CO)CC1=CC=CC=C1)/C(NC(C2=C(F) C=CC=C2)=O)=C\C3=CC=CC=C3]	> 100 µM
Cc1cccc(/C=C(/NC(=O)c2ccccc2)C(=O)N[C@H](CO)Cc2ccccc2)c1 [O=C(N[C@H](CO)CC1=CC=CC=C1)/C(NC(C2=CC=CC=C2) =O)=C\C3=CC=CC(C)=C3]	> 100 µM
O=C(N[C@H](CO)Cc1ccccc1)/C(=C\c1ccccc1Cl)NC(=O)c1ccccc1 [O=C(N[C@H](CO)CC1=CC=CC=C1)/C(NC(C2=CC=CC=C2)=O) =C\C3=CC=CC=C3Cl]	> 100 µM

Tested on: HBV
Assay: in vitro validation of anti-HBV capacity (IC50)
Assay type: cell-based
Details: Hepatitis B virus, read-out: IC50, In Vitro Validation
Description: as §1, §2

Compound	IC50
O=C(N[C@H](CO)Cc1ccccc1)/C(NC(=O)c1ccccc1)=C(/Br)c1ccc(Br)cc1 [Br/C(C1=CC=C(Br)C=C1)=C(NC(C2=CC=CC=C2)=O)/ C(N[C@@H](CC3=CC=CC=C3)CO)=O]	4.45 µM
O=C(N[C@H](CO)Cc1ccccc1)/C(NC(=O)c1ccccc1)=C(/Br)c1ccccc1 [Br/C(C1=CC=CC=C1)=C(NC(C2=CC=CC=C2)=O)/ C(N[C@H](CO)CC3=CC=CC=C3)=O]	3.86 µM
O=C(N[C@H](CO)Cc1ccccc1)/C(NC(=O)c1ccccc1)=C(/Br)c1ccccc1Cl [Br/C(C1=CC=CC=C1Cl)=C(NC(C2=CC=CC=C2)=O)/ C(N[C@@H](CC3=CC=CC=C3)CO)=O]	1.88 µM
Cc1cccc(/C=C(/NC(=O)c2ccccc2)C(=O)N[C@H](CO)Cc2ccccc2)c1 [O=C(N[C@H](CO)CC1=CC=CC=C1)/C(NC(C2=CC=CC=C2) =O)=C\C3=CC=CC(C)=C3]	> 20 µM
O=C(N[C@H](CO)Cc1ccccc1)/C(=C\c1ccccc1Br)NC(=O)c1ccccc1 [O=C(N[C@H](CO)CC1=CC=CC=C1)/C(NC(C2=CC=CC=C2)=O) =C\C3=CC=CC=C3Br]	> 20 µM
O=C(N[C@H](CO)Cc1ccccc1)/C(=C\c1ccccc1Cl)NC(=O)c1ccccc1 [O=C(N[C@H](CO)CC1=CC=CC=C1)/C(NC(C2=CC=CC=C2)=O) =C\C3=CC=CC=C3Cl]	> 20 µM

Same assay, conditions: Hepatitis B virus; anti-HBV capacity; top 10 compounds ranked by SG-ATT prediction; classification threshold 20 μM; read-out: IC50, In Vitro Validation

IC50	Compound
2.06 µM	COc1ccccc1/C(Br)=C(/NC(=O)c1ccc([N+](=O)[O-])cc1)C(=O)N[C@@H](CO)C(C)C [Br/C(C1=CC=CC=C1OC)=C(NC(C2=CC=C([N+]([O-]) =O)C=C2)=O)/C(N[C@@H](CO)C(C)C)=O]
1.93 µM	CCN(CC)CCOc1ccc2nc(SCc3ccccc3OC)n(Cc3cccs3)c(=O)c2c1 [O=C1C2=CC(OCCN(CC)CC)=CC=C2N=C (SCC3=C(OC)C=CC=C3)N1CC4=CC=CS4]
> 20 µM	O=C(N[C@@H](Cc1ccccc1)C(=O)N1CCCCC1)c1ccccc1 [O=C(N1CCCCC1)[C@@H](NC(C2=CC=CC=C2) =O)CC3=CC=CC=C3]

Compound	IC50
O=C(N[C@H](CO)Cc1ccccc1)/C(=C\c1ccccc1)NC(=O)c1ccccc1F [O=C(N[C@H](CO)CC1=CC=CC=C1)/C(NC(C2=C(F) C=CC=C2)=O)=C\C3=CC=CC=C3]	> 20 µM
